Assay results: patent US11000033B2, “Ketone or oxime compound, and herbicide” (NISSAN CHEMICAL CORPORATION, priority 2014, dated 2021)

Experiments:
Type in all cases: in vivo
Digitaria ciliaris = assay: Test Example 4: herbicidal effect by soil treatment (symbol F); conditions: application herbicide amount 320 g/ha
Procedure, shortened: (§1)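 Seeds were sown in sterilized diluvial soil, covered with about 1.5 cm of soil, and the soil surface was sprayed with a water-diluted emulsion of the compound at a predetermined rate. Plants grew in a greenhouse at 25° C. to 30° C.; effects were scored visually 3 weeks after application.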

Stellaria media = assay: Test Example 5: herbicidal effect by foliage application, plastic box (symbol P); conditions: 320 g/ha, 3 weeks after application
Procedure, shortened: (§2)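 Effect is rated 3 weeks after a foliar spray of water-diluted emulsion concentrate at a predetermined herbicide amount. Plants had grown 14 days in a 25° C. to 30° C. greenhouse from seed in sterilized diluvial soil.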

Abutilon theophrasti [1] = assay: Test Example 5: herbicidal effect by foliage application, plastic box (symbol M); conditions: 320 g/ha, 3 weeks after application
Procedure, shortened: as §2

soybean = assay: Test Example 4: effect on crop by soil treatment (symbol d); conditions: application herbicide amount 320 g/ha
Procedure, shortened: (§3)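 Grown at 25° C. to 30° C. in a greenhouse, the crops came from seed sown spot-wise in sterilized diluvial soil under roughly 1.5 cm of covering soil.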

Avena fatua = assay: Test Example 5: herbicidal effect by foliage application, plastic box (symbol I); conditions: 320 g/ha, 3 weeks after application
Procedure, shortened: as §2

[2] = tested on: Echinochloa crus-galli var. crus-galli; assay: Test Example 4: herbicidal effect by soil treatment (symbol H); conditions: application herbicide amount 320 g/ha
Procedure, shortened: as §1

beet = assay: Test Example 5: effect on crop by foliage application, plastic box (symbol f); conditions: 320 g/ha, 3 weeks after application
Procedure, shortened: (§4)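 Crop seed is sown alongside grass and broadleaf weed species in spots in sterilized diluvial soil, then covered to a depth of about 1.5 cm. Plants grow in a greenhouse kept at 25° C. to 30° C.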

[3] = tested on: directly sowed rice plant; assay: Test Example 3: effect on crop by foliage application, Wagner pot (symbol b); conditions: application herbicide amount 320 g/ha
Procedure, shortened: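 Plants are raised from seed in flooded paddy conditions: water stands 0.1–0.5 cm over alluvial soil, and the pot is kept in a greenhouse at 25–30 °C. Species sown are barnyardgrass (E. crus-galli var. crus-galli), Leptochloa chinensis, Cyperus difformis and rice.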

Lolium multiflorum Lam. [4] = assay: Test Example 5: herbicidal effect by foliage application, plastic box (symbol K); conditions: 320 g/ha, 3 weeks after application
Procedure, shortened: as §2

rapeseed = assay: Test Example 5: effect on crop by foliage application, plastic box (symbol g); conditions: 320 g/ha, 3 weeks after application
Procedure, shortened: as §4

Lolium multiflorum Lam. [5] = assay: Test Example 4: herbicidal effect by soil treatment (symbol K); conditions: application herbicide amount 320 g/ha
Procedure, shortened: as §1

Cyperus difformis = assay: Test Example 3: herbicidal effect by foliage application, Wagner pot (symbol E); conditions: application herbicide amount 320 g/ha
Procedure, shortened: (§5)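 Alluvial soil was flooded to a depth of 0.1–0.5 cm, seeded with the weeds and rice, and kept in a greenhouse at 25–30 °C. After 14 days of growth, the foliage received a small-sprayer application of emulsion diluted to the intended rate; injury was rated at 3 weeks.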

Apera spica-venti = assay: Test Example 5: herbicidal effect by foliage application, plastic box (symbol L); conditions: 320 g/ha, 3 weeks after application
Procedure, shortened: as §2

Amaranthus retroflexus = assay: Test Example 4: herbicidal effect by soil treatment (symbol N); conditions: application herbicide amount 320 g/ha
Procedure, shortened: as §1

Chenopodium album = assay: Test Example 5: herbicidal effect by foliage application, plastic box (symbol O); conditions: 320 g/ha, 3 weeks after application
Procedure, shortened: as §2

corn [6] = assay: Test Example 4: effect on crop by soil treatment (symbol c); conditions: application herbicide amount 320 g/ha
Procedure, shortened: as §3

wheat = assay: Test Example 5: effect on crop by foliage application, plastic box (symbol e); conditions: 320 g/ha, 3 weeks after application
Procedure, shortened: as §4

corn [7] = assay: Test Example 5: effect on crop by foliage application, plastic box (symbol c); conditions: 320 g/ha, 3 weeks after application
Procedure, shortened: as §4

Setaria viridis = assay: Test Example 5: herbicidal effect by foliage application, plastic box (symbol G); conditions: 320 g/ha, 3 weeks after application
Procedure, shortened: as §2

Abutilon theophrasti [8] = assay: Test Example 4: herbicidal effect by soil treatment (symbol M); conditions: application herbicide amount 320 g/ha
Procedure, shortened: as §1

Leptochloa chinensis = assay: Test Example 3: herbicidal effect by foliage application, Wagner pot (symbol D); conditions: application herbicide amount 320 g/ha
Procedure, shortened: as §5

| Compound | F: Digitaria ciliaris, herbicidal effect grade (Digitaria ciliaris) | P: Stellaria media, herbicidal effect grade (Stellaria media) | M: Abutilon theophrasti, herbicidal effect grade (Abutilon theophrasti [1]) | d: soybean, effect on crop grade (soybean) | I: Avena fatua, herbicidal effect grade (Avena fatua) | H: Echinochloa crus-galli var. crus-galli, herbicidal effect grade [2] | f: beet, effect on crop grade (beet) | effect on crop b (directly sowed rice plant), grade 0-5 [3] | K: Lolium multiflorum Lam., herbicidal effect grade (Lolium multiflorum Lam. [4]) | g: rapeseed, effect on crop grade (rapeseed) | K: Lolium multiflorum Lam., herbicidal effect grade (Lolium multiflorum Lam. [5]) | herbicidal effect on E, grade 0-5 (Cyperus difformis) | L: Apera spica-venti, herbicidal effect grade (Apera spica-venti) | N: Amaranthus retroflexus, herbicidal effect grade (Amaranthus retroflexus) | O: Chenopodium album, herbicidal effect grade (Chenopodium album) | c: corn, effect on crop grade (corn [6]) | e: wheat, effect on crop grade (wheat) | c: corn, effect on crop grade (corn [7]) | G: Setaria viridis, herbicidal effect grade (Setaria viridis) | M: Abutilon theophrasti, herbicidal effect grade (Abutilon theophrasti [8]) | further results |
| --- | --- | --- | --- | --- | --- | --- | --- | --- | --- | --- | --- | --- | --- | --- | --- | --- | --- | --- | --- | --- | --- |
| CCCC(=O)CC1CC(O)=C(c2c(C)cc(C)cc2C)C1=O (stereo not drawn) [2-021] | 5 (Herbicidal ratio of 90% or more (almost completely withered)) | 0 (Herbicidal ratio of 5% or lower (almost no effect)) | 0 (Herbicidal ratio of 5% or lower (almost no effect)) | 0 (Herbicidal ratio of 5% or lower (almost no effect)) | 3 (Herbicidal ratio of 40% or higher and lower than 70%) | 4 (Herbicidal ratio of 70% or higher and lower than 90%) | 0 (Herbicidal ratio of 5% or lower (almost no effect)) | 5 (Herbicidal ratio of 90% or more (almost completely withered)) | 5 (Herbicidal ratio of 90% or more (almost completely withered)) | 3 (Herbicidal ratio of 40% or higher and lower than 70%) | 5 (Herbicidal ratio of 90% or more (almost completely withered)) | 3 (Herbicidal ratio of 40% or higher and lower than 70%) | 0 (Herbicidal ratio of 5% or lower (almost no effect)) | 2 (Herbicidal ratio of 20% or higher and lower than 40%) | 0 (Herbicidal ratio of 5% or lower (almost no effect)) | 1 (Herbicidal ratio of 5% or higher and lower than 20%) | 0 (Herbicidal ratio of 5% or lower (almost no effect)) | 3 (Herbicidal ratio of 40% or higher and lower than 70%) | 4 (Herbicidal ratio of 70% or higher and lower than 90%) | 1 (Herbicidal ratio of 5% or higher and lower than 20%) | herbicidal effect on D (Leptochloa chinensis), grade 0-5 (Leptochloa chinensis): 3 (Herbicidal ratio of 40% or higher and lower than 70%) |
| Cc1cc(C)c(C2=C(O)CC(CC(=O)C(C)(C)C)C2=O)c(C)c1 (stereo not drawn) [2-022] | 0 (Herbicidal ratio of 5% or lower (almost no effect)) | 0 (Herbicidal ratio of 5% or lower (almost no effect)) | 0 (Herbicidal ratio of 5% or lower (almost no effect)) | 0 (Herbicidal ratio of 5% or lower (almost no effect)) | 0 (Herbicidal ratio of 5% or lower (almost no effect)) | 0 (Herbicidal ratio of 5% or lower (almost no effect)) | 0 (Herbicidal ratio of 5% or lower (almost no effect)) | 5 (Herbicidal ratio of 90% or more (almost completely withered)) | 5 (Herbicidal ratio of 90% or more (almost completely withered)) | 1 (Herbicidal ratio of 5% or higher and lower than 20%) | 4 (Herbicidal ratio of 70% or higher and lower than 90%) | 2 (Herbicidal ratio of 20% or higher and lower than 40%) | 2 (Herbicidal ratio of 20% or higher and lower than 40%) | 0 (Herbicidal ratio of 5% or lower (almost no effect)) | 0 (Herbicidal ratio of 5% or lower (almost no effect)) | 0 (Herbicidal ratio of 5% or lower (almost no effect)) | 0 (Herbicidal ratio of 5% or lower (almost no effect)) | 3 (Herbicidal ratio of 40% or higher and lower than 70%) | 0 (Herbicidal ratio of 5% or lower (almost no effect)) | 0 (Herbicidal ratio of 5% or lower (almost no effect)) | herbicidal effect on D (Leptochloa chinensis), grade 0-5 (Leptochloa chinensis): 4 (Herbicidal ratio of 70% or higher and lower than 90%) |
| CCC(C)C(=O)CC1CC(O)=C(c2c(C)cc(C)cc2C)C1=O (stereo not drawn) [2-024] | 5 (Herbicidal ratio of 90% or more (almost completely withered)) | 0 (Herbicidal ratio of 5% or lower (almost no effect)) | 0 (Herbicidal ratio of 5% or lower (almost no effect)) | 0 (Herbicidal ratio of 5% or lower (almost no effect)) | 2 (Herbicidal ratio of 20% or higher and lower than 40%) | 4 (Herbicidal ratio of 70% or higher and lower than 90%) | 0 (Herbicidal ratio of 5% or lower (almost no effect)) | 5 (Herbicidal ratio of 90% or more (almost completely withered)) | 5 (Herbicidal ratio of 90% or more (almost completely withered)) | 3 (Herbicidal ratio of 40% or higher and lower than 70%) | 0 (Herbicidal ratio of 5% or lower (almost no effect)) | 0 (Herbicidal ratio of 5% or lower (almost no effect)) | 2 (Herbicidal ratio of 20% or higher and lower than 40%) | 0 (Herbicidal ratio of 5% or lower (almost no effect)) | 0 (Herbicidal ratio of 5% or lower (almost no effect)) | 0 (Herbicidal ratio of 5% or lower (almost no effect)) | 0 (Herbicidal ratio of 5% or lower (almost no effect)) | 3 (Herbicidal ratio of 40% or higher and lower than 70%) | 5 (Herbicidal ratio of 90% or more (almost completely withered)) | 0 (Herbicidal ratio of 5% or lower (almost no effect)) | herbicidal effect on D (Leptochloa chinensis), grade 0-5 (Leptochloa chinensis): 3 (Herbicidal ratio of 40% or higher and lower than 70%) |
| CCOC(=O)C(C(=O)CC1CC1)C1CC(O)=C(c2c(C)cc(C)cc2C)C1=O (stereo not drawn) [2-025] | 4 (Herbicidal ratio of 70% or higher and lower than 90%) | 0 (Herbicidal ratio of 5% or lower (almost no effect)) | 0 (Herbicidal ratio of 5% or lower (almost no effect)) | 0 (Herbicidal ratio of 5% or lower (almost no effect)) | 0 (Herbicidal ratio of 5% or lower (almost no effect)) | 4 (Herbicidal ratio of 70% or higher and lower than 90%) | 0 (Herbicidal ratio of 5% or lower (almost no effect)) | 4 (Herbicidal ratio of 70% or higher and lower than 90%) | 5 (Herbicidal ratio of 90% or more (almost completely withered)) | 3 (Herbicidal ratio of 40% or higher and lower than 70%) | 4 (Herbicidal ratio of 70% or higher and lower than 90%) | 0 (Herbicidal ratio of 5% or lower (almost no effect)) | 3 (Herbicidal ratio of 40% or higher and lower than 70%) | 0 (Herbicidal ratio of 5% or lower (almost no effect)) | 0 (Herbicidal ratio of 5% or lower (almost no effect)) | 0 (Herbicidal ratio of 5% or lower (almost no effect)) | 0 (Herbicidal ratio of 5% or lower (almost no effect)) | 1 (Herbicidal ratio of 5% or higher and lower than 20%) | 5 (Herbicidal ratio of 90% or more (almost completely withered)) | 0 (Herbicidal ratio of 5% or lower (almost no effect)) | herbicidal effect on D (Leptochloa chinensis), grade 0-5 (Leptochloa chinensis): 1 (Herbicidal ratio of 5% or higher and lower than 20%) |
